From paper PMC9127750, “Structure-based design of CDC42 effector interaction inhibitors for the treatment of cancer” (Cell reports, 2022)

System: WM3248 melanoma cells, 486 antibodies
Assay: Reverse phase protein arrays (RPPA);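 on RPPA ACC1.R.C: ratio of treated to vehicle (0 µM) normalized linear protein signal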;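 on RPPA AMPK.a2 pS345.R.V: ratio of treated to vehicle (0 µM) normalized linear protein signal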;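 on RPPA AMPKa pT172.R.C: ratio of treated to vehicle (0 µM) normalized linear protein signal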;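 on RPPA ASNS.R.V: ratio of treated to vehicle (0 µM) normalized linear protein signal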;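 on RPPA AceCS1.R.V: ratio of treated to vehicle (0 µM) normalized linear protein signal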;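 on RPPA Akt1.R.V: ratio of treated to vehicle (0 µM) normalized linear protein signal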;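 on RPPA Atg5.R.C: ratio of treated to vehicle (0 µM) normalized linear protein signal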;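 on RPPA Bim.R.V: ratio of treated to vehicle (0 µM) normalized linear protein signal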
Format: cell-based, Human
Conditions: 10 uM
Excerpt: Pellets were snap frozen in liquid nitrogen and shipped to MD Anderson Cancer Center core RPPA facility for RPPA analysis (Table S5). Three biological replicates for each sample were generated.
Nomenclatures on the RPPA heatmaps: name_of_antibody.species_of_antibody.status_of_antibody. V - antibody validated; C - validation of antibody in progress; Q - antibody nonspecific; E – under evaluation; antibodies raised in M - mouse, G - goat, R - rabbit, or T - rat.

CN(C)c1cccc(Nc2cc(-c3ccccc3)nc(C3CCNCC3)n2)c1 [ARN22089, N1,N1-dimethyl-N3-(6-phenyl-2-(piperidin-4-yl)pyrimidin-4-yl)benzene-1,3-diamine]
RPPA B7.H4.R.C (10W1): 1.035 | RPPA B.Raf.R.C (10W1): 0.916 | RPPA B.Raf_pS445.R.V (10W1): 0.953 | RPPA BAP1.M.V (10W1): 0.957 | RPPA BCL2A1.R.V (10W1): 1.947 | RPPA BMK1.Erk5_pT218_Y220.R.V (10W1): 0.926 | RPPA BRCA1.M.C (10W1): 1.059 | RPPA BRD4.R.V (10W1): 1.134 | RPPA Bad_pS112.R.V (10W1): 1.118 | RPPA Bax.R.V (10W1): 1.004 | RPPA Bcl2.R.C (10W1): 1.048 | RPPA Bcl.xL.R.V (10W1): 1.112 | RPPA Beclin.R.C (10W1): 1.064 | RPPA Bim.R.V (10W1): 1.024 | RPPA X4E.BP1.R.V (10W1): 0.716 | RPPA X4E.BP1_pS65.R.V (10W1): 0.893 | RPPA X4E.BP1_pT37_T46.R.V (10W1): 0.934 | RPPA X14.3.3.zeta.R.V (10W1): 1.029 | RPPA X14.3.3βR.V (10W1): 1.012 | RPPA X14.3.3εM.C (10W1): 0.955 | RPPA X53BP1.R.V (10W1): 0.984 | RPPA b.Catenin.R.V (10W1): 0.868 | RPPA b.Catenin_pT41_S45.R.V (10W1): 1.019 | RPPA c.Abl.R.V (10W1): 1.140 | RPPA c.Abl_pY412.R.C (10W1): 0.995 | RPPA A.Raf_pS299.R.C (10W3): 0.989 | RPPA ACC1.R.C (10W3): 0.761 | RPPA ACC_pS79.R.V (10W3): 0.652 | RPPA ACLY_pS455.R.V (10W3): 1.060 | RPPA ACSL1.R.V (10W3): 0.743 | RPPA ACVRL1.R.C (10W3): 1.047 | RPPA ADAR1.M.V (10W3): 0.974 | RPPA AMPK.a2_pS345.R.V (10W3): 1.012 | RPPA AMPKa.R.C (10W3): 0.993 | RPPA AMPKa_pT172.R.C (10W3): 0.770 | RPPA AR.R.V (10W3): 0.980 | RPPA ARID1A.R.C (10W3): 1.025 | RPPA ASNS.R.V (10W3): 1.126 | RPPA ATM.R.V (10W3): 0.864 | RPPA ATM_pS1981.R.V (10W3): 1.016 | RPPA ATP5A.M.C (10W3): 0.859 | RPPA ATP5H.R.V (10W3): 1.047 | RPPA ATR.R.V (10W3): 0.992 | RPPA ATRX.R.C (10W3): 0.863 | RPPA ATR_pS428.R.C (10W3): 1.076 | RPPA AceCS1.R.V (10W3): 0.950 | RPPA Akt1.R.V (10W3): 1.034 | RPPA Akt1_pS473.R.V (10W3): 1.099 | RPPA Akt2.R.V (10W3): 0.982 | RPPA Akt2_pS474.R.C (10W3): 1.062 | RPPA Akt.R.V (10W3): 0.811 | RPPA Akt_pS473.R.V (10W3): 1.223 | RPPA Akt_pT308.R.V (10W3): 1.196 | RPPA Ambra1_pS52.R.C (10W3): 0.979 | RPPA Annexin.I.M.V (10W3): 0.896 | RPPA Annexin.VII.M.V (10W3): 0.983 | RPPA Atg5.R.C (10W3): 0.843 | RPPA Atg7.R.V (10W3): 0.986 | RPPA Aurora.A.R.C (10W3): 1.109 | RPPA Aurora.ABC_pT288_pT232_pT198.R.C (10W3): 0.933 | RPPA Aurora.B.R.V (10W3): 1.003 | RPPA Axl.R.V (10W3): 0.953 | RPPA B7.H3.R.C (10W3): 1.031 | RPPA B.Raf_pS445.R.V (10W3): 1.006 | RPPA BAP1.M.V (10W3): 1.063 | RPPA BCL2A1.R.V (10W3): 1.172 | RPPA BMK1.Erk5_pT218_Y220.R.V (10W3): 0.935 | RPPA BRCA1.M.C (10W3): 0.989 | RPPA BRD4.R.V (10W3): 0.839 | RPPA Bad_pS112.R.V (10W3): 1.059 | RPPA Bak.R.C (10W3): 1.018 | RPPA Bax.R.V (10W3): 0.972 | RPPA Bcl.xL.R.V (10W3): 1.015 | RPPA Beclin.R.C (10W3): 0.995 | RPPA BiP.GRP78.M.C (10W3): 1.013 | RPPA Bid.R.C (10W3): 1.021 | RPPA Bim.R.V (10W3): 0.900 | RPPA X4E.BP1.R.V (10W3): 0.590 | RPPA X4E.BP1_pS65.R.V (10W3): 1.148 | RPPA X4E.BP1_pT37_T46.R.V (10W3): 1.133 | RPPA X14.3.3.zeta.R.V (10W3): 1.033 | RPPA X14.3.3βR.V (10W3): 1.026 | RPPA X14.3.3εM.C (10W3): 1.009 | RPPA X53BP1.R.V (10W3): 0.920 | RPPA b.Actin.R.C (10W3): 1.024 | RPPA b.Catenin.R.V (10W3): 0.914 | RPPA b.Catenin_pT41_S45.R.V (10W3): 1.012 | RPPA c.Abl.R.V (10W3): 1.061 | RPPA c.Abl_pY412.R.C (10W3): 0.963 | RPPA c.IAP2.R.C (10W3): 1.023 | C.Raf.R.C RPPA level (Average): 0.940 | C.Raf_pS338.R.V RPPA level (Average): 0.978 | CA9.R.C RPPA level (Average): 0.980 | CD2.M.C RPPA level (Average): 1.035 | CD4.R.V RPPA level (Average): 0.935 | CD5.M.C RPPA level (Average): 1.029 | CD20.R.C RPPA level (Average): 1.026 | CD26.R.V RPPA level (Average): 0.948 | CD29.M.V RPPA level (Average): 1.016 | CD31.M.V RPPA level (Average): 1.034 | CD38.R.C RPPA level (Average): 0.977 | CD44.R.C RPPA level (Average): 1.010 | CD45.M.V RPPA level (Average): 1.023 | CD49b.M.V RPPA level (Average): 1.014 | CD68.M.C RPPA level (Average): 1.034 | CD134.R.V RPPA level (Average): 1.019 | CD171.M.V RPPA level (Average): 0.898 | CDK1_pT14.R.C RPPA level (Average): 0.932 | CDK9.R.V RPPA level (Average): 1.014 | CDT1.R.V RPPA level (Average): 1.048 | CENP.A.R.V RPPA level (Average): 1.017 | CHD1L.R.V RPPA level (Average): 1.034 | CIITA.R.C RPPA level (Average): 1.018 | COG3.R.V RPPA level (Average): 1.062 | CRABP1.R.C RPPA level (Average): 1.050 | CREB_pS133.R.C RPPA level (Average): 1.130 | Calnexin.R.V RPPA level (Average): 1.046 | Caspase.3.cleaved.R.C RPPA level (Average): 0.944 | Caspase.7.cleaved..R.C RPPA level (Average): 0.997 | Caspase.8.M.Q RPPA level (Average): 0.957 | Caspase.8.cleaved.R.C RPPA level (Average): 0.988 | Caveolin.1.R.V RPPA level (Average): 0.941 | Cdc6.R.V RPPA level (Average): 0.971 | Cdc42.R.C RPPA level (Average): 0.986 | Chk1.M.C RPPA level (Average): 1.082 | Chk1_pS345.R.C RPPA level (Average): 0.961 | Chk2.M.V RPPA level (Average): 1.026 | Chk2_pT68.R.C RPPA level (Average): 1.020 | Claudin.7.R.V RPPA level (Average): 1.203 | Collagen.VI.R.V RPPA level (Average): 1.025 | Complex.II.Subunit.M.V RPPA level (Average): 1.017 | Connexin.43.R.C RPPA level (Average): 1.031 | Coup.TFII.R.C RPPA level (Average): 0.889 | Cox2.R.C RPPA level (Average): 0.972 | Cox.IV.R.V RPPA level (Average): 0.954 | Creb.R.C RPPA level (Average): 0.986 | CtIP.R.V RPPA level (Average): 0.940 | Cyclin.B1.R.V RPPA level (Average): 0.940 | Cyclin.D1.R.C RPPA level (Average): 1.061 | Cyclin.D3.M.V RPPA level (Average): 1.058 | Cyclin.E1.R.V RPPA level (Average): 1.006 | Cyclophilin.F.M.V RPPA level (Average): 0.965 | D.a.Tubulin.R.V RPPA level (Average): 0.976 | DAPK2.R.C RPPA level (Average): 0.971 | DDB.1.R.V RPPA level (Average): 0.857 | DDR1.R.V RPPA level (Average): 1.028 | DDR1_pY513.R.C RPPA level (Average): 1.051 | DJ1.R.V RPPA level (Average): 1.016 | DM.Histone.H3.R.V RPPA level (Average): 0.928 | DNA.Ligase.IV.R.C RPPA level (Average): 1.003 | DNA_POLG.R.V RPPA level (Average): 1.013 | RPPA A.Raf.R.V (Average): 0.917 | RPPA ACC1.R.C (Average): 0.919 | RPPA ACC_pS79.R.V (Average): 0.878 | RPPA ACLY_pS455.R.V (Average): 1.125 | RPPA ACSL1.R.V (Average): 0.971 | RPPA ADAR1.M.V (Average): 1.083 | RPPA ALKBH5.R.V (Average): 1.027 | RPPA AMPK.a2_pS345.R.V (Average): 1.001 | RPPA AMPKa.R.C (Average): 0.982 | RPPA AMPKa_pT172.R.C (Average): 1.263 | RPPA AR.R.V (Average): 0.922 | RPPA ASNS.R.V (Average): 0.960
